We go through 42 compounds from PubChem BioAssay AID1996.

Converted amounts (≈) assume the structure as drawn.

The conditions of the data set: buffer; pH 7.4; 200.0 µM.
In general, solubility (kinetic) refers to solubility judged after dilution from a stock solution rather than from solid. Compound `CCCN(CCC)C(=O)Cc1ccc(F)cc1` gave a solubility (kinetic) of 28 µg/mL (≈ 118 µM).
The result for `Cc1ccc(C)c(NC(=O)C[n+]2ccccc2)c1.[Cl-]` reads 40.8 µg/mL.
The result for `S=c1nc(COc2ccccc2)[nH]c2ccccc12` reads 8 µg/mL (≈ 29.8 µM); that for `Cc1noc(C)c1COC(=O)CNC(=O)c1cccc(F)c1`, 45.9 µg/mL (≈ 150 µM).
The result for `Cc1cccc(NC(=S)NC23CN4CN(CN(C4)C2)C3)c1C` reads 46.8 µg/mL (≈ 147 µM).
`CCOc1ccc(NC(=O)NCc2ccccn2)cc1` came in with a kinetic solubility of 35.6 µg/mL (≈ 131 µM).
The result for `CN1CCN(NC(=O)NC2CCCCC2)CC1` reads greater than 36.1 µg/mL.
The result for `CCCCNC(=O)C1CCN(c2nc(C)cc(C)n2)CC1` reads 8.9 µg/mL (≈ 30.6 µM).
Then `CN(CC(=O)Nc1ccccc1C(=O)Nc1ccccc1)C1CCCCC1`, with 2.4 µg/mL (≈ 6.57 µM); and `CC(=O)N1c2ccccc2C(=O)C1N(C)c1ccc(C)cc1` (configuration not stated), with 16.9 µg/mL (≈ 57.4 µM).
Take `O=C(NCC1COc2ccccc2O1)C1CCN(S(=O)(=O)c2ccccc2)CC1` (configuration not stated): the solubility (kinetic) turned out to be 40.8 µg/mL (≈ 98 µM).
The result for `Cc1ccnc(NC(=O)CCNS(=O)(=O)c2ccc(C)c(C)c2)c1` reads 45.8 µg/mL (≈ 132 µM); that for `NS(=O)(=O)c1cccc(NC(=O)CCCC2CCCCC2)c1`, 8.8 µg/mL (≈ 27.1 µM); that for `COc1ccc(-c2nonc2NC(=O)c2ccco2)cc1OC`, greater than 47.3 µg/mL.
The result for `Cc1ccc(NC(=O)C2COc3ccccc3O2)cc1C` (configuration not stated) reads 14.5 µg/mL (≈ 51.2 µM); that for `Cc1cccc(N2CCCn3c2nc2c3c(=O)[nH]c(=O)n2C)c1`, greater than 46.7 µg/mL; that for `Cc1cc(NC(=O)COc2ccccc2)ccc1Cl`, 1.9 µg/mL (≈ 6.89 µM).
For `Cc1c(C)n(-c2ccccc2)c2ncnc(NCCN(C)C)c12`, the kinetic solubility is greater than 46.4 µg/mL.
The result for `COc1cccc(C(=O)N(C)C(C)c2nc3ccccc3s2)c1` (configuration not stated) reads greater than 49 µg/mL; that for `O=C(CC1Sc2ccccc2NC1=O)NCc1ccccc1` (configuration not stated), 0.4 µg/mL (≈ 1.28 µM); that for `CN(C(=O)c1ccc(N2CCCCC2)c([N+](=O)[O-])c1)C1CCS(=O)(=O)C1` (configuration not stated), greater than 57.2 µg/mL.
Then `CCCN1CNc2c(c(=O)[nH]c(=S)n2CCc2ccccc2)C1`, with 1.7 µg/mL (≈ 5.14 µM); and `COCCN(CC(=O)Nc1cccc(C)c1C)C(=O)C1(c2ccccc2)CC1`, with greater than 57.1 µg/mL; and `S=C(NCc1ccccc1)NCc1ccc(Cl)cc1`, with 2.3 µg/mL (≈ 7.91 µM).
Take `Cc1ccc(Cl)cc1NC(=O)C1CC1c1ccccc1` (configuration not stated): the solubility (kinetic) was less than 0.6 µg/mL.
The result for `Cc1ccc(C(=O)Nc2ccc3c(c2)OCCO3)cc1` reads 40.4 µg/mL (≈ 150 µM); that for `CCN(C(=O)c1ccco1)C1C2CC3CC(C2)CC1C3` (configuration not stated), 26.1 µg/mL (≈ 95.5 µM); that for `O=C1CCCN1C(=O)COc1cc(F)ccc1[N+](=O)[O-]`, greater than 42.3 µg/mL.
Regarding `Cc1cc(C(=O)Nc2ccccc2N2CCOCC2)c(C)o1`, the kinetic solubility worked out at 10.3 µg/mL (≈ 34.3 µM).
Then `Cc1ccc2nc(N3CCCCC3)c(C=O)c(=O)n2c1`, with 39.1 µg/mL (≈ 144 µM); and `COc1ccc(-c2cn3ccccc3n2)cc1`, with greater than 33.6 µg/mL.
Then `CN(C(=O)COC(=O)c1cnc(Cl)c(Cl)c1)C1CCCCC1`, with 41.7 µg/mL (≈ 121 µM); and `COc1ccc(Cc2n[nH]c(=S)o2)cc1`, with greater than 33.3 µg/mL; and `NC(N)=NC(N)=Nc1cccc2ccccc12`, with greater than 34.1 µg/mL.
Then `COc1cccc(N2CCN(C(=O)c3cc4ccc(OC)cc4[nH]3)CC2)c1`, with 1.6 µg/mL (≈ 4.38 µM).
For the compound `O=C(Nc1ccc(F)cc1)c1ccc2ncsc2c1`, the kinetic solubility came out at 10.3 µg/mL (≈ 37.8 µM).
In turn, `COc1ccc(C)cc1S(=O)(=O)N1CCCCCC1` displayed a kinetic solubility of 40.7 µg/mL (≈ 144 µM).
As to `O=C(Cc1ccccc1)Nc1ccc2oc(=O)ccc2c1`, the solubility (kinetic) was 39.9 µg/mL (≈ 143 µM).
Then `O=C1CNC(=S)N1CCCc1ccccc1`, with greater than 35.1 µg/mL; and `O=C(Nc1cccc(S(=O)(=O)N2CCCC2)c1)c1ccco1`, with greater than 48.1 µg/mL; and `N#Cc1cc([N+](=O)[O-])ccc1NC(=O)CSc1n[nH]c(=O)[nH]c1=O`, with greater than 52.2 µg/mL.
The result for `Cc1cccc(CCNCc2cc3ccc(C)cc3[nH]c2=O)c1` reads 45.4 µg/mL (≈ 148 µM).
